Like-named read-outs stand apart in the source and are kept apart here.
Legend:
TAP [1] = conditions: previous study, Neisig et al., 1995; cited from earlier work
TAP [2] = assay: TAP translocation of peptides into the endoplasmic reticulum; assay type: biochemical
T2 cells = assay: 51Cr cytotoxicity assay with peptide pulsed targets; assay type: cell-based, human; conditions: targets pulsed at high peptide concentrations
Method: CTL activity was measured in a standard chromium release assay. Briefly, after ^51Cr labeling, target cells were pulsed with the designated peptide concentrations for 30 min or longer at 37° C. Target cells were added to various number of effector cells in a final volume of 100 μl complete culture medium in 96-well-U-bottom plates. After 4 h incubation at 37° C. supernatants were harvested.

Sequence	translocation by TAP into the ER (TAP [1])	translocation by TAP into the ER (TAP [2])	further results
KSPWFTTL	not translocated by TAP at all		
PSSSWDFITVD [peptide fragment said to be generated by FBL-3 cells]		completely abolishes TAP translocation	
FAPGNYPAL	not efficiently translocated		
LYVDSLFFL [PRAME aa; 301-309, naturally presented in HLA-A24]			lysis of peptide pulsed targets by CTL clones (T2 cells): very low crossreactivity
FNKSPWFTTL [proteasome fragment of MCF substrate, 10-mer]		efficiently translocated	
FNKSPWFTTLI [proteasome fragment of MCF substrate, 11-mer]		efficiently translocated	
GEFAPGNYPAL [proteasome fragment of Sendai substrate, N-terminally elongated 11-mer]	most efficiently translocated length variant		

From US20030186355A1, “Methods for selecting and producing t cell peptide epitopes and vaccines incorporating said selected epitopes” (priority 2000, published 2003)
